The record followed here is patent US12252484B2, “Pyrazolopyridine compounds for the treatment of autoimmune disease” (Hoffmann-La Roche Inc., priority 2018, dated 2025).

This assay deals with T1, human TLR7 (Homo sapiens, UniProt Q9NYK1).
T1 sequence (Q9NYK1 27-1049): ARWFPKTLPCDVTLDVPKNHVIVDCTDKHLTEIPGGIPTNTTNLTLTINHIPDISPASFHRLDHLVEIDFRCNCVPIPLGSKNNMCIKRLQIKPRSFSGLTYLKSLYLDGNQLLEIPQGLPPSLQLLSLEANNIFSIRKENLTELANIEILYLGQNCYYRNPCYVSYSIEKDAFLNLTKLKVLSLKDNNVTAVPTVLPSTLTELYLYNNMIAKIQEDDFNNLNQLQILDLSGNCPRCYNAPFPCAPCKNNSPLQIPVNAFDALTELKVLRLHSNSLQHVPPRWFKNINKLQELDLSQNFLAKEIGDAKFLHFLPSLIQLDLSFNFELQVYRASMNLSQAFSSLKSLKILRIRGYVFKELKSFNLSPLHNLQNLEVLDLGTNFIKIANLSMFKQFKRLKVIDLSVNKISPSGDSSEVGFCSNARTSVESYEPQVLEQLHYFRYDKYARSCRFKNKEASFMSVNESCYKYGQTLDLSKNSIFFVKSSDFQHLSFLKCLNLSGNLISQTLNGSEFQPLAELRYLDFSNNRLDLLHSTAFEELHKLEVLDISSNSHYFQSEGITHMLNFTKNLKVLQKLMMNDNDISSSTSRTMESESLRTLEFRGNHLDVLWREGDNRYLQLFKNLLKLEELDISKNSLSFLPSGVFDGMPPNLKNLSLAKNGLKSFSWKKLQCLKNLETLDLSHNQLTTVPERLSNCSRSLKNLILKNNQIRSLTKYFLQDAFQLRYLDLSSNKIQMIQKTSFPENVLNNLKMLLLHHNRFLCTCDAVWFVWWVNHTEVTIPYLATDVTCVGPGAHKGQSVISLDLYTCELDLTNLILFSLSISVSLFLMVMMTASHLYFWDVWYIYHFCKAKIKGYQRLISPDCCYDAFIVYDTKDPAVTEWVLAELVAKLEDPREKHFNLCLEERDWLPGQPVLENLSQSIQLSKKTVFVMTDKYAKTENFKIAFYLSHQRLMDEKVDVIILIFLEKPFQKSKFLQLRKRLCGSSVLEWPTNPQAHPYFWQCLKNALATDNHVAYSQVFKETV
Description: HEK293-Blue-hTLR-7 cells assay (SEAP reporter, R848 stimulation). The class given is cell-based. The settings on record: HEK293-Blue-hTLR-7 cells, R848 ligand, 20 hrs incubation; read-out: TLR7 IC50. The protocol: The following tests were carried out in order to determine the activity of the compounds of formula (I) in HEK293-Blue-hTLR-7/8/9 cells assay.
HEK293-Blue-hTLR-7 Cells Assay:
A stable HEK293-Blue-hTLR-7 cell line was purchased from InvivoGen (Cat. #: hkb-htlr7, San Diego, California, USA). These cells were originally designed for studying the stimulation of human TLR7 by monitoring the activation of NF-κB. A SEAP (secreted embryonic alkaline phosphatase) reporter gene was placed under the control of the IFN-β minimal promoter fused to five NF-κB and AP-1-binding sites. The SEAP was induced by activating NF-κB and AP-1 via stimulating HEK-Blue hTLR7 cells with TLR7 ligands. Therefore the reporter expression was declined by TLR7 antagonist under the stimulation of a ligand, such as R848 (Resiquimod), for incubation of 20 hrs. The cell culture supernatant SEAP reporter activity was determined using QUANTI-Blue™ kit (Cat. #: rep-qb1, Invivogen, San Diego, Ca, USA) at a wavelength of 640 nm, a detection medium that turns purple or blue in the presence of alkaline phosphatase.
HEK293-Blue-hTLR7 cells were incubated at a density of 250,000˜450,000 cells/mL in a volume of 170 μL in a 96-well plate in Dulbecco's Modified Eagle's medium (DMEM) containing 4.5 g/L glucose, 50 U/mL penicillin, […], […], 2 mM L-glutamine, 10% (v/v) heat-inactivated fetal bovine serum with addition of 20 μL test compound in a serial dilution in the presence of final DMSO at 1% and 10 μL of 20 uM R848 in above DMEM, perform incubation under 37° C. in a CO2 incubator for 20 hrs. Then 20 μL of the supernatant from each well was incubated with 180 μL Quanti-blue substrate solution at 37° C. for 2 hrs and the absorbance was read at 620˜655 nm using a spectrophotometer. The signalling pathway that TLR7 activation leads to downstream NF-κB activation has been widely accepted, and therefore similar reporter assay was modified for evaluating TLR7 antagonist.
Consider `C[C@@H]1CN(c2ccc(C#N)n3nccc23)C[C@H](C(=O)NC2CCN(C)CC2)O1` [Example 1, (2R,6R)-4-(7-cyanopyrazolo[1,5-a]pyridin-4-yl)-6-methyl-N-(1-methyl-4-piperidyl)morpholine-2-carboxamide], for which the IC50 came to 0.017 µM.

Regarding `C[C@@H]1CN(c2ccc(C#N)n3nccc23)C[C@H](C(=O)N[C@H]2CNC[C@H]2F)O1` [Example 2, (2R,6R)-4-(7-cyanopyrazolo[1,5-a]pyridin-4-yl)-N-[(3S,4R)-4-fluoropyrrolidin-3-yl]-6-methyl-morpholine-2-carboxamide], the half-maximal inhibitory concentration (IC50) worked out at 0.091 µM.

Consider `C[C@@H]1CN(c2ccc(C#N)n3nccc23)C[C@H](C(=O)NC2CC3(CNC3)C2)O1` [Example 3, (2R,6R)-N-(2-azaspiro[3.3]heptan-6-yl)-4-(7-cyanopyrazolo[1,5-a]pyridin-4-yl)-6-methyl-morpholine-2-carboxamide], for which the IC50 worked out at 0.16 µM.

Turning to `C[C@@H]1CN(c2ccc(C#N)n3nccc23)C[C@H](C(=O)NC2CCOCC2)O1` [Example 4, (2R,6R)-4-(7-cyanopyrazolo[1,5-a]pyridin-4-yl)-6-methyl-N-tetrahydropyran-4-yl-morpholine-2-carboxamide], the IC50 amounted to 0.41 µM.

As to `C[C@@H]1CN(c2ccc(C#N)n3nccc23)C[C@H](C(=O)NC2CNC[C@H]2F)O1` (stereo partly drawn) [Example 5, Cis-(2R,6R)-4-(7-cyanopyrazolo[1,5-a]pyridin-4-yl)-6-methyl-N-(4-fluoropyrrolidin-3-yl) morpholine-2-carboxamide], the 50% inhibitory concentration (IC50) worked out at 0.073 µM.

Regarding `C[C@@H]1CN(c2ccc(C#N)n3nccc23)C[C@H](C(=O)NC2CCCNCC2)O1` (stereo partly drawn) [Example 6, (2R,6R)-N-(azepan-4-yl)-4-(7-cyanopyrazolo[1,5-a]pyridin-4-yl)-6-methyl-morpholine-2-carboxamide], the IC50 is 0.016 µM.

As for `C[C@@H]1CN(c2ccc(C#N)n3nccc23)C[C@H](C(=O)NCC2CN(C)CCO2)O1` (stereo partly drawn) [Example 7, (2R,6R)-4-(7-cyanopyrazolo[1,5-a]pyridin-4-yl)-6-methyl-N-[(4-methylmorpholin-2-yl)methyl]morpholine-2-carboxamide], the IC50 worked out at 0.067 µM.

For `C[C@@H]1CN(c2ccc(C#N)n3nccc23)C[C@H](C(=O)N2CC(N)C2)O1` [Example 8, 4-[(2R,6R)-2-(3-aminoazetidine-1-carbonyl)-6-methyl-morpholin-4-yl]pyrazolo[1,5a]pyridine-7-carbonitrile], the IC50 was 0.19 µM.

Turning to `COCCNC(=O)[C@H]1CN(c2ccc(C#N)n3nccc23)C[C@@H](C)O1` [Example 9, (2R,6R)-4-(7-cyanopyrazolo[1,5-a]pyridin-4-yl)-N-(2-methoxyethyl)-6-methyl-morpholine-2-carboxamide], the IC50 worked out at 0.65 µM.

For `C[C@@H]1CN(c2ccc(C#N)n3nccc23)C[C@H](C(=O)NC23CC4CC(CC(C4)C2)C3)O1` [Example 12, (2R,6R)-N-(1-adamantyl)-4-(7-cyanopyrazolo[1,5-a]pyridin-4-yl)-6-methyl-morpholine-2-carboxamide], the IC50 was determined as 0.21 µM.

In the case of `CCC(O)CNC(=O)[C@H]1CN(c2ccc(C#N)n3nccc23)C[C@@H](C)O1` (stereo partly drawn) [Example 13, (2R,6R)-4-(7-cyanopyrazolo[1,5-a]pyridin-4-yl)-N-(2-hydroxybutyl)-6-methyl-morpholine-2-carboxamide], the IC50 stood at 0.49 µM.

Consider `C[C@@H]1CN(c2ccc(C#N)n3nccc23)C[C@H](C(=O)NC2CC3CCCC(C2)N3)O1` (stereo partly drawn) [Example 14, (2R,6R)-N-(9-azabicyclo[3.3.1]nonan-3-yl)-4-(7-cyanopyrazolo[1,5-a]pyridin-4-yl)-6-methyl-morpholine-2-carboxamide], for which the IC50 worked out at 0.007 µM.

As for `C[C@@H]1CN(c2ccc(C#N)n3nccc23)C[C@H](C(=O)NC23CC(CO)(C2)C3)O1` [Example 15, (2R,6R)-4-(7-cyanopyrazolo[1,5-a]pyridin-4-yl)-N-[3-(hydroxymethyl)-1-bicyclo[1.1.1]pentanyl]-6-methyl-morpholine-2-carboxamide], the IC50 stood at 0.22 µM.

Turning to `C[C@@H]1CN(c2ccc(C#N)n3nccc23)C[C@H](C(=O)NC(C)(C)CO)O1` [Example 16, (2R,6R)-4-(7-cyanopyrazolo[1,5-a]pyridin-4-yl)-N-(2-hydroxy-1,1-dimethyl-ethyl)-6-methyl-morpholine-2-carboxamide], the half-maximal inhibitory concentration (IC50) came to 0.46 µM.

Consider `CCC(C)(C)NC(=O)[C@H]1CN(c2ccc(C#N)n3nccc23)C[C@@H](C)O1` [Example 17, (2R,6R)-4-(7-cyanopyrazolo[1,5-a]pyridin-4-yl)-N-(1,1-dimethylpropyl)-6-methyl-morpholine-2-carboxamide], for which the IC50 was 0.36 µM.

For the compound `C[C@@H]1CN(c2ccc(C#N)n3nccc23)C[C@H](C(=O)NCC2CNCC2(F)F)O1` (stereo partly drawn) [Example 18, (2R,6R)-4-(7-cyanopyrazolo[1,5-a]pyridin-4-yl)-N-[(4,4-difluoropyrrolidin-3-yl)methyl]-6-methyl-morpholine-2-carboxamide], the IC50 turned out to be 0.055 µM.

Take `C[C@@H]1CN(c2ccc(C#N)n3nccc23)C[C@H](C(=O)NC2(C)CCNCC2)O1` [Example 19, (2R,6R)-4-(7-cyanopyrazolo[1,5-a]pyridin-4-yl)-6-methyl-N-(4-methyl-4-piperidyl)morpholine-2-carboxamide]: the concentration for half-maximal inhibition (IC50) turned out to be 0.099 µM.

Consider `C[C@@H]1CN(c2ccc(C#N)n3nccc23)C[C@H](C(=O)N[C@H]2CC[C@@H](O)CC2)O1` [Example 20, Cis-(2R,6R)-4-(7-cyanopyrazolo[1,5-a]pyridin-4-yl)-N-(4-hydroxycyclohexyl)-6-methyl-morpholine-2-carboxamide], for which the IC50 came to 0.35 µM.

Consider `C[C@@H]1CN(c2ccc(C#N)n3nccc23)C[C@H](C(=O)N[C@H]2CC[C@H](O)CC2)O1` [Example 21, Trans-(2R,6R)-4-(7-cyanopyrazolo[1,5-a]pyridin-4-yl)-N-(4-hydroxycyclohexyl)-6-methyl-morpholine-2-carboxamide], for which the half-maximal inhibitory concentration (IC50) was 0.42 µM.

Take `C[C@@H]1CN(c2ccc(C#N)n3nccc23)C[C@H](C(=O)NC2CC3COCC(C2)N3)O1` (stereo partly drawn) [Example 22, Endo-(2R,6R)-4-(7-cyanopyrazolo[1,5-a]pyridin-4-yl)-6-methyl-N-[3-oxa-9-azabicyclo[3.3.1]nonan-7-yl]morpholine-2-carboxamide]: the IC50 came to 0.01 µM.

Take `C[C@@H]1CN(c2ccc(C#N)n3nccc23)C[C@H](C(=O)NC2CC3CCC(C2)N3)O1` (stereo partly drawn) [Example 23, Exo-(2R,6R)-N-[8-azabicyclo[3.2.1]octan-3-yl]-4-(7-cyanopyrazolo[1,5-a]pyridin-4-yl)-6-methyl-morpholine-2-carboxamide]: the IC50 worked out at 0.027 µM.

`C[C@@H]1CN(c2ccc(C#N)n3nccc23)C[C@H](C(=O)NC2CCNCC2)O1` [Example 24, (2R,6R)-4-(7-cyanopyrazolo[1,5-a]pyridin-4-yl)-6-methyl-N-(4-piperidyl)morpholine-2-carboxamide]: the IC50 turned out to be 0.043 µM.

On to `C[C@@H]1CN(c2ccc(C#N)n3nccc23)C[C@H](C(=O)NC2CCNC2)O1` (stereo partly drawn) [Example 25, (2R,6R)-4-(7-cyanopyrazolo[1,5-a]pyridin-4-yl)-6-methyl-N-pyrrolidin-3-yl-morpholine-2-carboxamide], for which the IC50 was found to be 0.15 µM.
